This passage reports IC50 results from US5114925A, “Renin inhibitors containing the 2-[[(2R,3S)-3-amino-4-cyclohexyl-2-hydroxy-1-butyl]thio)alkanoyl moiety and the corresponding sulfoxide and sulfone derivatives” (Merck & Co., Inc., priority 1991, dated 1992).

pIC50: −log10 of the molar value.

In this experiment the target is T1, human renin (Homo sapiens, UniProt P00797).
T1 construct: added to human plasma (75 μl) containing EDTA; from tissue; host or cells: human plasma
T1 sequence (P00797 67-406): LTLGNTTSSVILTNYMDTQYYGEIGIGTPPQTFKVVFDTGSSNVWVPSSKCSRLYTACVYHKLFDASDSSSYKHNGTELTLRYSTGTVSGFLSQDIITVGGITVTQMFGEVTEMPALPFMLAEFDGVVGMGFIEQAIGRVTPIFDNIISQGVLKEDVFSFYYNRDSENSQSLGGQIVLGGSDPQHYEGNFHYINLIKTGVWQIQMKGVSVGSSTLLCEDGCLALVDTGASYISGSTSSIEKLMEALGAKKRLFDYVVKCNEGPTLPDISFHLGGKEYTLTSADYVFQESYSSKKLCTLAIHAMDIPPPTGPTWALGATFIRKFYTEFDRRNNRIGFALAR
The experiment is described as follows: plasma renin assay (radioimmunoassay of angiotensin-I released in human plasma). Type of experiment: biochemical. The following applies: human renin and human renin substrate in human plasma, 37° C., pH 6.9, angiotensin-I by radioimmunoassay; read-out: IC50 (the molar concentration required to cause 50% inhibition), renin inhibitory activity. As to the method:
It is based on the measurement, by radiommunoassay, of Angiotensin-I released from human renin substrate by human renin in human plasma. The inhibitor is dissolved in 0.01N HCl (10 μl) and added to human plasma (75 μl) containing EDTA, and angiotensin-I antibody ([…]) in 3M-Tris.HCl buffer (pH 6.9).
Free and bound ligand are separated by the addition of dextran-coated charcoal, and the amount of bound radio-ligand determined in a gamma counter.
For `CC(C)CC(C(=O)NCCN1CCOCC1)[S+]([O-])C[C@H](O)[C@H](CC1CCCCC1)NC(=O)[C@H](Cc1cnc[nH]1)NC(=O)[C@H](Cc1ccccc1)NC(=O)OC(C)(C)C` (stereo partly shown) [4-[2-[[(2 ---- RS )-2-[X-sulfinyl]-4-methyl-pentanoyl]amino]ethyl]morpholine], the pIC50 is 7.06. Regarding `CC(C)(C)OC(=O)N[C@@H](Cc1ccccc1)C(=O)N[C@@H](Cc1c[nH]cn1)C(=O)N[C@@H](CC1CCCCC1)[C@@H](O)CSCC(=O)NCc1ccncc1` [4-[[2-[X-thio]acetamido]methyl]pyridine], the pIC50 is 7.04.

On to `CCOC(=O)CSC[C@H](O)[C@H](CC1CCCCC1)NC(=O)[C@H](Cc1cnc[nH]1)NC(=O)[C@H](Cc1ccccc1)NC(=O)OC(C)(C)C` [ethyl 2-[X-thio]acetate, ethyl 2-[[(2R,3S) 3-(Boc-L-phenylalanyl-L-histidylamino)-4-cyclohexyl-2-hydroxy-1-butyl]thio]acetate], for which the pIC50 was 7.24. The result for `CN1CCN(C(=O)CSC[C@H](O)[C@H](CC2CCCCC2)NC(=O)[C@H](Cc2cnc[nH]2)NC(=O)[C@H](Cc2ccccc2)NC(=O)OC(C)(C)C)CC1` [4-[2-[X-thio]acetyl]-1-methylpiperazine, 4-[2-[[(2R,3S)-3-(Boc-L-phenylalanyl-L-histidylamino)-4-cyclohexyl-2-hydroxy-1-butyl]thio]acetyl]-1-methylpiperazine] reads 7.54; that for `CC(C)(C)OC(=O)N[C@@H](Cc1ccccc1)C(=O)N[C@@H](Cc1c[nH]cn1)C(=O)N[C@@H](CC1CCCCC1)[C@@H](O)CSCC(=O)O` [2-[X-thio]acetic acid, 2-[[(2R,3S)-3-(Boc-L-phenylalanyl-L-histidylamino)-4-cyclohexyl-2-hydroxy-1-butyl]thio]acetic acid], 6.04. The result for `CNCCN(C)C(=O)CSC[C@H](O)[C@H](CC1CCCCC1)NC(=O)[C@H](Cc1c[nH]cn1)NC(=O)[C@H](Cc1ccccc1)NC(=O)OC(C)(C)C` [N-[2-[[(2R,3S)-3-(Boc-L-phenylalanyl-L-histidylamino)-4-cyclohexyl-2-hydroxy-1-butyl]thio]acetyl]-N,N'-dimethylethylenediamine] reads 6.79; that for `CC(C)(C)S(=O)(=O)C[C@@H](Cc1ccccc1)C(=O)N[C@@H](Cc1c[nH]cn1)C(=O)N[C@@H](CC1CCCCC1)[C@@H](O)CS(=O)(=O)CC(=O)NCCN1CCOCC1` [4-[2-[2-[[(2R,3S)3-[N^α -[(S)-2-[(t-Butylsulfonyl)-methyl]-3-phenylpropionyl]-L-histidylamino]-4-cyclohexyl-2-hydroxy-1-butyl]sulfonyl]-acetamido]ethyl]morpholine], 8.14; that for `CC(C)(C)OC(=O)N[C@@H](Cc1ccccc1)C(=O)N[C@@H](Cc1cnc[nH]1)C(=O)N[C@@H](CC1CCCCC1)[C@@H](O)C[S+]([O-])CC(=O)NCCN1CCOCC1` (stereo partly drawn) [4-[[(2R,3S)-3-(Boc-L-phenylalanyl-L-histidylamino)-4-cyclohexyl-2-hydroxy-1-butyl]-sulfinyl]acetyl]amino]ethyl]morpholine], 7.72. `CN1CCN(C(=O)CS(=O)(=O)C[C@H](O)[C@H](CC2CCCCC2)NC(=O)[C@H](Cc2cnc[nH]2)NC(=O)[C@H](Cc2ccccc2)NC(=O)OC(C)(C)C)CC1` [4-[2-[X-sulfonyl]acetyl]-1-methylpiperazine]: the pIC50 is 7.70. As for `CC(C)(C)OC(=O)N[C@@H](Cc1ccccc1)C(=O)N[C@@H](Cc1c[nH]cn1)C(=O)N[C@@H](CC1CCCCC1)[C@@H](O)CS(=O)(=O)CC(=O)NC1CCN(Cc2ccccc2)CC1` [1-benzyl-4-[2-[X-sulfonyl]acetamido]piperidine], the pIC50 is 7.47.

In the case of `CC(C)(C)OC(=O)N[C@@H](Cc1ccccc1)C(=O)N[C@@H](Cc1cnc[nH]1)C(=O)N[C@@H](CC1CCCCC1)[C@@H](O)CS(=O)(=O)CC(=O)NCCN1CCOCC1`, the pIC50 is 8.03. As for `CC(C)CC(SC[C@H](O)[C@H](CC1CCCCC1)NC(=O)[C@H](Cc1c[nH]cn1)NC(=O)[C@H](Cc1ccccc1)NC(=O)OC(C)(C)C)C(=O)NCCN1CCOCC1` (mixture of isomers) [4-[2-[[(2RS)-2-[[(2R,3S)-3-(Boc-L-phenylalanyl-L-histidylamino)-4-cyclohexyl-2-hydroxy-1-butyl]thio]methylpentanoyl]-4-methylpentanoyl]amino]ethyl]morpholine], the pIC50 was 7.14. For `CC(C)CC(C(=O)NCCN1CCOCC1)S(=O)(=O)C[C@H](O)[C@H](CC1CCCCC1)NC(=O)[C@H](Cc1c[nH]cn1)NC(=O)[C@H](Cc1ccccc1)NC(=O)OC(C)(C)C` (stereo partly shown) [4-[2-[[2 ---- RS )-2 [X-sulfonyl]-4-methyl-pentanoyl]amino]ethyl]morpholine] the value was 7.11; for `CC(C)(C)OC(=O)N[C@@H](Cc1ccccc1)C(=O)N[C@@H](Cc1cnc[nH]1)C(=O)N[C@@H](CC1CCCCC1)[C@@H](O)CSCC(=O)NCCN1CCOCC1` [4-[2-[2-[X-thio]acetamido]ethyl]morpholine], 7.40.

On to `CC(C)(C)OC(=O)N[C@@H](Cc1ccccc1)C(=O)N[C@@H](Cc1c[nH]cn1)C(=O)N[C@@H](CC1CCCCC1)[C@@H](O)CS(=O)(=O)CC(=O)NC1C[N+]2([O-])CCC1CC2` (stereo partly shown) [3-[2-[X-sulfonyl]acetamido]quinuclidine-N-oxide], for which the pIC50 is 8.38.

`CC(C)(C)OC(=O)NC(Cc1ccccc1)C(=O)NC(Cc1cnc[nH]1)C(=O)NC(CC1CCCCC1)C(O)CSCC(=O)NC1CN2CCC1CC2` (stereo not shown) [3-[2-[X-thio]acetamido}quinuclidine]: the pIC50 is 7.54.
